According to the supplement of paper PMC11208160:
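Further: IS621 bridge recombinase in Escherichia coli cells against a fixed T5 target plasmid.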

Experiment: recombinant UMI read abundance after kanamycin selection (control-corrected) (log10(CPM+1)); higher = more efficient recombination; extreme values may be limits of the assay; sequences stand for … in AGTGCAGAGAAAATCGGCCAGTTTTCTCTGCCTGCAGTCCGCATGCCGTGGGACCCCTTGGGTTCTAACCTGTTGCCTAGATTTATGCAGCGGACTGCCTTTCTCCCAAAGTGATAAACCGG…AGGTTGGTTTCACT; site = the 11-nt donor
Procedure, shortened: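 Values, expressed as log10(CPM+1), derive from recombinant UMI counts converted to CPM, averaged across replicates and scaled by control-derived factors. Plating was with IPTG (0.07 mM) plus kanamycin or unselected, two replicates each. The screen pooled donor and donor-binding-loop pairs for the IS621 bridge recombinase in Escherichia coli.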
For “CTCCCTGCATGGACCGGTTTTCCCGGTAATCCGTATTTGGC (site CTCCCTGCTGC)”, the “recombinant UMI read abundance (log10)” value was 0.
With “CGTTTTGCATGGACCGGTTTTCCCGGTAATCCGTATTTGCT (site CGTTTGGCTAG)” the “recombinant UMI read abundance (log10)” value was 0.
With “ACACAACCATGGACCGGTTTTCCCGGTAATCCGTATTTGAC (site ACACAGCCTGT)” the “recombinant UMI read abundance (log10)” value was 0.668.
In the case of “TAGGATACATGGACCGGTTTTCCCGGTAATCCGTATTTGCA (site TAGCATACTTG)”, the “recombinant UMI read abundance (log10)” value is reported as 0.852.
With “GCTACTGCATGGACCGGTTTTCCCGGTAATCCGTATTTGTC (site GCTACTGCTGT)” the “recombinant UMI read abundance (log10)” value was 0.512.
With “GGTATTTCATGGACCGGTTTTCCCGGTAATCCGTATTTGAA (site GGTATTTCTTT)” the “recombinant UMI read abundance (log10)” value was 0.
In the case of “TATCCTTCATGGACCGGTTTTCCCGGTAATCCGTATTTGGT (site TAACCTTCTAC)”, the “recombinant UMI read abundance (log10)” value is reported as 0.00593.
In the case of “TGCCAGGCATGGACCGGTTTTCCCGGTAATCCGTATTTGGT (site TGCAAGGCTAC)”, the “recombinant UMI read abundance (log10)” value is reported as 0.016.
For “CAAGATTCATGGACCGGTTTTCCCGGTAATCCGTATTTGTT (site AAAGATTCTAA)”, the “recombinant UMI read abundance (log10)” value was 0.
With “CCCATATCATGGACCGGTTTTCCCGGTAATCCGTATTTGTC (site CACATATCTGA)” the “recombinant UMI read abundance (log10)” value was 0.
With “CATCGCCCATGGACCGGTTTTCCCGGTAATCCGTATTTGAT (site CATCGCCCTAT)” the “recombinant UMI read abundance (log10)” value was 0.725.
With “AGGGAGACATGGACCGGTTTTCCCGGTAATCCGTATTTGTA (site AGGGAGACTTA)” the “recombinant UMI read abundance (log10)” value was 1.57.
With “GTCCCTACATGGACCGGTTTTCCCGGTAATCCGTATTTGAG (site ATCCCTACTCT)” the “recombinant UMI read abundance (log10)” value was 0.0134.
With “CGTTAGACATGGACCGGTTTTCCCGGTAATCCGTATTTGAT (site CGTTAGACTCT)” the “recombinant UMI read abundance (log10)” value was 0.00897.
With “AAGAATACATGGACCGGTTTTCCCGGTAATCCGTATTTGCA (site AAGAATACTTG)” the “recombinant UMI read abundance (log10)” value was 1.67.
For “CAGGAGTCATGGACCGGTTTTCCCGGTAATCCGTATTTGCC (site CCGGAGTCTGG)”, the “recombinant UMI read abundance (log10)” value was 0.
With “CGACCATCATGGACCGGTTTTCCCGGTAATCCGTATTTGCG (site CGATCATCTAG)” the “recombinant UMI read abundance (log10)” value was 0.
In the case of “GGAGTGCCATGGACCGGTTTTCCCGGTAATCCGTATTTGGT (site GGAGTGACTAC)”, the “recombinant UMI read abundance (log10)” value is reported as 0.00343.
With “TACGTCACATGGACCGGTTTTCCCGGTAATCCGTATTTGGG (site TACGTCACTCC)” the “recombinant UMI read abundance (log10)” value was 0.0239.
In the case of “CTAAGGCCATGGACCGGTTTTCCCGGTAATCCGTATTTGAC (site GTAAGGCCTGT)”, the “recombinant UMI read abundance (log10)” value is reported as 0.
In the case of “GAGCTCTCATGGACCGGTTTTCCCGGTAATCCGTATTTGAT (site GAGCTCTCTAT)”, the “recombinant UMI read abundance (log10)” value is reported as 2.58.
In the case of “CGGGATTCATGGACCGGTTTTCCCGGTAATCCGTATTTGCC (site CGGGAGTCTGG)”, the “recombinant UMI read abundance (log10)” value is reported as 1.18.
With “ACCTAGACATGGACCGGTTTTCCCGGTAATCCGTATTTGGG (site ACCTAGACTCG)” the “recombinant UMI read abundance (log10)” value was 0.634.
For “ATCTAGGCATGGACCGGTTTTCCCGGTAATCCGTATTTGGC (site ATCTAGGCTGC)”, the “recombinant UMI read abundance (log10)” value was 0.
In the case of “AGGAAGACATGGACCGGTTTTCCCGGTAATCCGTATTTGCG (site AGGAAGACTTG)”, the “recombinant UMI read abundance (log10)” value is reported as 1.73.
In the case of “ACGGCGTCATGGACCGGTTTTCCCGGTAATCCGTATTTGTC (site ACGGCGTCTGA)”, the “recombinant UMI read abundance (log10)” value is reported as 3.22.
With “GCCTGCCCATGGACCGGTTTTCCCGGTAATCCGTATTTGAT (site GCCTGCCCTAT)” the “recombinant UMI read abundance (log10)” value was 0.201.
For “CGCATCCCATGGACCGGTTTTCCCGGTAATCCGTATTTGGC (site CGCATCCCTGC)”, the “recombinant UMI read abundance (log10)” value was 1.75.
For “AGCCTGGCATGGACCGGTTTTCCCGGTAATCCGTATTTGAC (site AGCCTGGCTGT)”, the “recombinant UMI read abundance (log10)” value was 0.
In the case of “CGATCCCCATGGACCGGTTTTCCCGGTAATCCGTATTTGGG (site CGATCCCCTCC)”, the “recombinant UMI read abundance (log10)” value is reported as 0.00829.
With “CTAAGGCCATGGACCGGTTTTCCCGGTAATCCGTATTTGAC (site ATAAGGCCTGT)” the “recombinant UMI read abundance (log10)” value was 0.
With “TTCTATACATGGACCGGTTTTCCCGGTAATCCGTATTTGAC (site ATCTATACTGT)” the “recombinant UMI read abundance (log10)” value was 0.
With “TCGTACTCATGGACCGGTTTTCCCGGTAATCCGTATTTGCA (site TCCTACTCTTG)” the “recombinant UMI read abundance (log10)” value was 2.28.
For “GAGTCAGCATGGACCGGTTTTCCCGGTAATCCGTATTTGCC (site GAGTCAGCTGG)”, the “recombinant UMI read abundance (log10)” value was 1.07.
With “AGTAGCCCATGGACCGGTTTTCCCGGTAATCCGTATTTGGA (site AGTAGCCCTTC)” the “recombinant UMI read abundance (log10)” value was 0.01.
With “CAAGCGCCATGGACCGGTTTTCCCGGTAATCCGTATTTGTC (site CAAGCGCCTAA)” the “recombinant UMI read abundance (log10)” value was 0.486.
For “ACGTGGACATGGACCGGTTTTCCCGGTAATCCGTATTTGTG (site ACGTGGACTCA)”, the “recombinant UMI read abundance (log10)” value was 1.53.
With “GTACGTACATGGACCGGTTTTCCCGGTAATCCGTATTTGAC (site GTACGTACTGT)” the “recombinant UMI read abundance (log10)” value was 2.51.
In the case of “ACACGAACATGGACCGGTTTTCCCGGTAATCCGTATTTGTC (site ACTCGAACTGA)”, the “recombinant UMI read abundance (log10)” value is reported as 0.747.
In the case of “CGATTGACATGGACCGGTTTTCCCGGTAATCCGTATTTGTT (site CGATAGACTAA)”, the “recombinant UMI read abundance (log10)” value is reported as 0.0285.
For “TAACTCCCATGGACCGGTTTTCCCGGTAATCCGTATTTGGC (site TAACTCCCTGC)”, the “recombinant UMI read abundance (log10)” value was 0.847.
In the case of “AACTGTCCATGGACCGGTTTTCCCGGTAATCCGTATTTGAT (site AACCGTCCTAT)”, the “recombinant UMI read abundance (log10)” value is reported as 0.423.
In the case of “ATCCTTTCATGGACCGGTTTTCCCGGTAATCCGTATTTGAC (site AACCTTTCTGT)”, the “recombinant UMI read abundance (log10)” value is reported as 0.
With “ATCCAGGCATGGACCGGTTTTCCCGGTAATCCGTATTTGAG (site ATCCAGGCTCT)” the “recombinant UMI read abundance (log10)” value was 0.
For “GATTGGACATGGACCGGTTTTCCCGGTAATCCGTATTTGAC (site GATGGGACTGT)”, the “recombinant UMI read abundance (log10)” value was 0.
For “CGTTTGGCATGGACCGGTTTTCCCGGTAATCCGTATTTGGT (site CGTTTGGCTAT)”, the “recombinant UMI read abundance (log10)” value was 0.959.
With “GCGCGAGCATGGACCGGTTTTCCCGGTAATCCGTATTTGGG (site GCGCGAGCTCC)” the “recombinant UMI read abundance (log10)” value was 0.163.
With “ACTACTGCATGGACCGGTTTTCCCGGTAATCCGTATTTGGT (site ACTATTGCTAC)” the “recombinant UMI read abundance (log10)” value was 0.00304.
For “GAATTCCCATGGACCGGTTTTCCCGGTAATCCGTATTTGCT (site TAATTCCCTAG)”, the “recombinant UMI read abundance (log10)” value was 0.902.
With “GTAGTCGCATGGACCGGTTTTCCCGGTAATCCGTATTTGCG (site GTACTCGCTCG)” the “recombinant UMI read abundance (log10)” value was 0.0126.
For “CGGACATCATGGACCGGTTTTCCCGGTAATCCGTATTTGTT (site CGGACATCTAA)”, the “recombinant UMI read abundance (log10)” value was 2.07.
For “CTGCTACCATGGACCGGTTTTCCCGGTAATCCGTATTTGTT (site CTGCTACCTAC)”, the “recombinant UMI read abundance (log10)” value was 0.0167.
For “ACACGAACATGGACCGGTTTTCCCGGTAATCCGTATTTGTC (site TCACGAACTGA)”, the “recombinant UMI read abundance (log10)” value was 0.
With “TAGCTAACATGGACCGGTTTTCCCGGTAATCCGTATTTGAA (site TAGCTAGCTTT)” the “recombinant UMI read abundance (log10)” value was 0.00737.
With “TCTTAAACATGGACCGGTTTTCCCGGTAATCCGTATTTGCA (site TCTTAAACTTG)” the “recombinant UMI read abundance (log10)” value was 0.
In the case of “TGATTCCCATGGACCGGTTTTCCCGGTAATCCGTATTTGAC (site TGATTCCCTGT)”, the “recombinant UMI read abundance (log10)” value is reported as 0.794.
In the case of “ACTTCCGCATGGACCGGTTTTCCCGGTAATCCGTATTTGTT (site ACTTCCGCTAA)”, the “recombinant UMI read abundance (log10)” value is reported as 1.5.
For “ATGGAAACATGGACCGGTTTTCCCGGTAATCCGTATTTGCA (site CTGGAAACTTG)”, the “recombinant UMI read abundance (log10)” value was 1.6.
For “GGGTACACATGGACCGGTTTTCCCGGTAATCCGTATTTGGC (site GGGTACACTGC)”, the “recombinant UMI read abundance (log10)” value was 3.08.
For “CTCTCCACATGGACCGGTTTTCCCGGTAATCCGTATTTGCT (site CTCTGCACTAG)”, the “recombinant UMI read abundance (log10)” value was 0.
In the case of “GTCCCTACATGGACCGGTTTTCCCGGTAATCCGTATTTGAG (site TTCCCTACTCT)”, the “recombinant UMI read abundance (log10)” value is reported as 0.00698.
For “TAAGTGCCATGGACCGGTTTTCCCGGTAATCCGTATTTGAC (site TAAGTGCCTGT)”, the “recombinant UMI read abundance (log10)” value was 0.999.
For “ATTCGTGCATGGACCGGTTTTCCCGGTAATCCGTATTTGTG (site ATTCGTGCTCA)”, the “recombinant UMI read abundance (log10)” value was 0.309.
In the case of “CCCTAGTCATGGACCGGTTTTCCCGGTAATCCGTATTTGCC (site CCCTAGACTGG)”, the “recombinant UMI read abundance (log10)” value is reported as 0.402.
For “TAGATAGCATGGACCGGTTTTCCCGGTAATCCGTATTTGAA (site TAGCTAGCTTT)”, the “recombinant UMI read abundance (log10)” value was 0.0111.
With “GATACTGCATGGACCGGTTTTCCCGGTAATCCGTATTTGCC (site GTTACTGCTGG)” the “recombinant UMI read abundance (log10)” value was 1.4.
With “CACTAGGCATGGACCGGTTTTCCCGGTAATCCGTATTTGGA (site CACTCGGCTTC)” the “recombinant UMI read abundance (log10)” value was 0.0143.
With “GTAGGGTCATGGACCGGTTTTCCCGGTAATCCGTATTTGTT (site GTAGGGTCTAA)” the “recombinant UMI read abundance (log10)” value was 2.38.
In the case of “CCATGGTCATGGACCGGTTTTCCCGGTAATCCGTATTTGAA (site CCATGGTCTTT)”, the “recombinant UMI read abundance (log10)” value is reported as 0.724.
In the case of “TTTGCCGCATGGACCGGTTTTCCCGGTAATCCGTATTTGCT (site TTTGCTGCTAG)”, the “recombinant UMI read abundance (log10)” value is reported as 0.
In the case of “AGAAAGACATGGACCGGTTTTCCCGGTAATCCGTATTTGCA (site AGGAAGACTTG)”, the “recombinant UMI read abundance (log10)” value is reported as 0.932.
In the case of “GACACGCCATGGACCGGTTTTCCCGGTAATCCGTATTTGTA (site GGCACGCCTTA)”, the “recombinant UMI read abundance (log10)” value is reported as 0.00761.
In the case of “GTAGTCGCATGGACCGGTTTTCCCGGTAATCCGTATTTGCG (site ATAGTCGCTCG)”, the “recombinant UMI read abundance (log10)” value is reported as 0.405.
With “GTGTCATCATGGACCGGTTTTCCCGGTAATCCGTATTTGCA (site GTGTCATCTTG)” the “recombinant UMI read abundance (log10)” value was 0.804.
For “TTAGCTGCATGGACCGGTTTTCCCGGTAATCCGTATTTGTC (site TTAGCTGCTTA)”, the “recombinant UMI read abundance (log10)” value was 0.15.
